The values below come from ChEMBL document CHEMBL1201862, “PubChem BioAssay data set” (2004).

Among the test systems are DU-145; HCC 2998; MDA-MB-231; SF-295; HCT-116; UACC-62; Malme-3M; OVCAR-4; HL-60; SF-539; NCI-H460; ACHN; UACC-257; KM12; SF-268; RPMI-8226; DMS-114; NCI-H23; SK-MEL-2; HOP-62.
Common to all, as to assay: growth of human tumour cells (NCI), 48 h

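All cell lines were grown in 96-well plates and treated with compound for 48 hours. GI50 marks 50% less growth.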 The source made the active and inactive calls. Cut-off read from the data, not from the text of the source: active = GI50 up to about 1.1 µM and inactive = higher. Square brackets hold non-standard residues; d marks the D form. Peptide text beside a SMILES is read from it. 2Nal = N[CH](Cc1ccc2ccccc2c1)C(=O)O

For `NCCNc1ccc(NCCN)c2c1C(=O)c1c(O)ccc(O)c1C2=O`, the GI50 in the assay with DU-145 was 0.109 µM (active); in the assay on HCC 2998, 0.423 µM (active); in the assay on MDA-MB-231, 0.681 µM (active); in the assay on SF-295 it was 0.00445 µM (active); with HCT-116, 0.051 µM (active); with UACC-62, 0.0108 µM (active). In addition, the GI50 in the assay on Malme-3M was 0.0671 µM (active); in the assay on OVCAR-4 it was 0.207 µM (active); in the assay on HL-60, 0.0407 µM (active); in the assay with SF-539, 0.0219 µM (active); with NCI-H460, < 0.001 µM (active); with ACHN it was 0.00542 µM (active). Besides, the GI50 was 1.06 µM (active) in the assay with UACC-257; 0.118 µM (active) with KM12; 0.00721 µM (active) in the assay with SF-268; 0.0106 µM (active) in the assay with RPMI-8226; < 0.001 µM (active) with DMS-114; 0.00728 µM (active) in the assay on NCI-H23. For the same compound, the GI50 in the assay on SK-MEL-2 was 0.44 µM (active).
With `O=C[C@@H](CO)O[C@H](C=O)n1cnc2c(=O)nc[nH]c21`, the GI50 was 261 µM (inactive) in the assay with DU-145; 116 µM (inactive) in the assay on HCC 2998; 128 µM (inactive) with MDA-MB-231; 619 µM (inactive) in the assay on SF-295; 177 µM (inactive) in the assay with HCT-116; 264 µM (inactive) in the assay with HOP-62. In addition, the GI50 in the assay on UACC-62 was 375 µM (inactive); with Malme-3M it was 301 µM (inactive); in the assay with OVCAR-4, 399 µM (inactive); with HL-60, 65.8 µM (inactive); in the assay with SF-539 it was 490 µM (inactive); with NCI-H460 it was 603 µM (inactive). In addition, the GI50 with ACHN is 540 µM (inactive); in the assay with UACC-257 it was 378 µM (inactive); with KM12, 335 µM (inactive); in the assay on SF-268, 431 µM (inactive); in the assay with RPMI-8226, 131 µM (inactive); in the assay with DMS-114, 39.2 µM (inactive). Also, the figures for the GI50 in the assay on NCI-H23 and with SK-MEL-2 were 243 µM (inactive) and 318 µM (inactive), respectively.
With `CC(C)C(NC(=O)C(CCCCN)NC(=O)C(Cc1c[nH]c2ccccc12)NC(=O)C(Cc1ccc(O)cc1)NC(=O)C(CS)NC(=O)C(N)Cc1ccc2ccccc2c1)C(=O)NC(CS)C(=O)NC(C(N)=O)C(C)O` (centres undefined) (H-[2Nal]CYWKVCT-NH2; configuration not given here), the GI50 with DU-145, in the assay with HCC 2998, with MDA-MB-231, in the assay on SF-295, in the assay with HCT-116 and in the assay with HOP-62 was > 12.5 µM (inactive) in each case. In addition, the GI50 in the assay with UACC-62, with Malme-3M, in the assay on OVCAR-4, in the assay with HL-60, in the assay on SF-539 and in the assay on NCI-H460 was > 12.5 µM (inactive) throughout. Besides, the GI50 with ACHN is > 12.5 µM (inactive); in the assay with UACC-257, > 12.5 µM (inactive); in the assay with KM12, > 12.5 µM (inactive); in the assay on SF-268 it was > 12.5 µM (inactive); with RPMI-8226 it was > 12.5 µM (inactive); with DMS-114, > 100 µM (inactive). Also, the GI50 with NCI-H23 and in the assay on SK-MEL-2 was > 12.5 µM (inactive) in each case.
